Measured values from paper PMC9457600, “Synthesis, Leishmanicidal, Trypanocidal, Antiproliferative Assay and Apoptotic Induction of (2-Phenoxypyridin-3-yl)naphthalene-1(2H)-one Derivatives” (Molecules, 2022).

How the values were obtained:
VERO cells = assay: MTT cytotoxicity on VERO cells; format: cell-based, African green monkey; details: Chlorocebus sabaeus, 72 h
Method: (§1) Vero cells were derived from the kidney of an African green monkey, cells were maintained in Dulbecco’s Modified Eagle’s Medium (DMEM), supplemented with 10% heat-inactivated FBS and penicillin-streptomycin solution 1% at 37 °C, 5% CO2 atmosphere and > 95% humidity. We evaluated through a colorimetric method the effect of compounds 8–23 on the promastigotes of L. brasiliensis. Briefly, 96-well plates were used, where 2 × 10^6 parasites/mL were seeded. A concentration of 50 μM was used for each compound and an incubation time of 96 h at 29 °C. 3-(4,5-dimethylthiazol-2-yl)-2,5-diphenyl tetrazolium bromide (MTT) 1 μg/mL was added and incubated in darkness for 4 h, acidic isopropanol (4N) was added and the plate was read at 570 nm in a spectrophotometer Synergy HT (Biotek). Miltefosine was used as a reference drug. The EC50 calculation of the selected compound was performed using growth curves. Direct counting was used to monitor the proliferation of parasites, three independent experiments were performed for each concentration of the compounds evaluated. The in vitro evaluations of compounds toxicity by MTT in VERO and BMDM cells follow a methodology described above with some modifications. The selectivity index was calculated with SI = CC50/EC50, where CC50 was the maximum concentration range of compounds 10, 21–23 used to evaluate cytotoxicity in VERO and BMDM cells. The trypanocidal activity of compounds 8–23 was evaluated on the viability of T. cruzi epimastigotes through a colorimetric method adapted with minor modifications. 2 × 10^6 parasites/mL were seeded in a 96-well plate, adding 50 μM of each derivative dissolved in DMSO (final concentration remained below 1%). The plate was incubated for 96 h at 29 °C. Then, 1 μg/mL of 3-(4,5-dimethylthiazol-2-yl)-2,5-diphenyl tetrazolium bromide (MTT) was added and incubated in darkness for 4 h. After this time, acidic isopropanol (4N) was added and the plate was read at 570 nm in a spectrophotometer Synergy HT (Biotek). Benznidazole was used as a reference drug. The in vitro evaluations of compounds toxicity by MTT in VERO and BMDM cells follow a methodology described above with some modifications. Cells were counted in suspension and seeded at 20 × 10^3 cells/well. The test was carried out in triplicate on 96-well microplates in different concentrations: 50 μM, 100 μM, 200 μM and 300 μM, untreated cells and reference drug (benznidazole) controls.

[1] = tested on: epimastigotes of Trypanosoma cruzi strain MHOM/VE/92/YBM; assay: MTT viability of T. cruzi epimastigotes; format: cell-based; details: for EC50: 72 h, epimastigotes
CEM-DNR = assay: MTS antiproliferative assay CEM-DNR; format: cell-based; details: Homo sapiens, 72 h of incubation, daunorubicin-resistant
From the text: (§2) The cell lines used were acquired from the American Type Culture Collection (ATCC), CCRF-CEM (T lymphoblastic leukemia), K562 ([…]), U2OS (osteosarcoma), HCT116 (colon carcinoma), A549 (lung adenocarcinoma) and HCT116p53−/− (HCT116 cell line mutated in p53) Horizon Discovery Ltd., (Waterbeach, Cambridge, United Kingdom).
(§3) In our laboratory, IMTM, we generated the daunorubicin-resistant subline of CCRF-CEM cells (CEM-DNR bulk) and paclitaxel-resistant subline K562-TAX, as described previously. […] Both ABC transporters are involved in drug resistance. As a control, human fibroblasts MRC-5 and BJ cell lines were used. […] Adherent cells were passaged using PBS containing 0.25% trypsin plus 0.01% EDTA (ethylenediamine tetraacetic acid) every 2–3 days.
(§4) The antiproliferative activity of compounds was determined using a standard 3-(4,5-dimethylthiazol-2yl)-5-(3-carboxymethoxyphenyl)-2-(4-sulfophenyl)-2H-tetrazolium (MTS) reduction assay on a robotic high throughput screening platform (HighResBio, Boston, MA, USA) following treatment of cells for 3–7 days. The IC50 values were calculated from the appropriate dose–response curves with Dotmatics software (San Diego, CA, USA).

HCT-116 = assay: MTS antiproliferative assay HCT116; format: cell-based; details: Homo sapiens, 72 h of incubation
From the text: as §2, §3, §4

K562-TAX = assay: MTS antiproliferative assay K562-TAX; format: cell-based, human; details: Homo sapiens, K562-Tax, 72 h, 72 h of incubation; paclitaxel-resistant
From the text: as §2, §3, §4

A549 = assay: MTS antiproliferative assay A549; format: cell-based, human; details: Homo sapiens, A549, 72 h, 72 h of incubation
From the text: as §2, §3, §4

CCRF-CEM = assay: MTS antiproliferative assay CCRF-CEM; format: cell-based; details: Homo sapiens, 72 h of incubation
From the text: as §2, §3, §4

BJ = assay: MTS assay on non-malignant BJ; format: cell-based; details: noncancerous human cell line
Method: as §3, §4

[2] = tested on: promastigotes of Leishmania (V.) braziliensis strain MHOM/CO/87/UA301; assay: MTT viability of L. braziliensis promastigotes; format: cell-based
Method: Promastigotes of Leishmania (V.) braziliensis strain MHOM/CO/87/UA301 were isolated from footpad lesions in Balb/C mice previously infected. In the process of maintenance and differentiation of the parasites, the LTI medium (tryptose 15 g/L, yeast extract 5 g/L, liver extract 2 g/L, hemin-NaOH 0.02 g/L, glucose 4 g/L, NaCl 9 g/L, KCl 0.4 g/L Na2HPO4, 7.5 g/L at pH 7.4) supplemented with 10% fetal calf serum and maintained at 29 °C was used.
Briefly, 96-well plates were used, where 2 × 10^6 parasites/mL were seeded. A concentration of 50 μM was used for each compound and an incubation time of 96 h at 29 °C. 3-(4,5-dimethylthiazol-2-yl)-2,5-diphenyl tetrazolium bromide (MTT) 1 μg/mL was added and incubated in darkness for 4 h, acidic isopropanol (4N) was added and the plate was read at 570 nm in a spectrophotometer Synergy HT (Biotek). Miltefosine was used as a reference drug. The EC50 calculation of the selected compound was performed using growth curves. Direct counting was used to monitor the proliferation of parasites, three independent experiments were performed for each concentration of the compounds evaluated. The in vitro evaluations of compounds toxicity by MTT in VERO and BMDM cells follow a methodology described above with some modifications [60].

K562 = assay: MTS antiproliferative assay K562; format: cell-based, human; details: Homo sapiens, K562, 72 h, 72 h of incubation
From the text: as §2, §3, §4

MRC-5 = assay: MTS assay on non-malignant MRC-5; format: cell-based; details: MRC5; noncancerous human cell line
Method: as §3, §4

HCT116p53−/− = assay: MTS antiproliferative assay HCT116p53-/-; format: cell-based; details: Homo sapiens; 72 h of incubation
From the text: as §2, §3, §4

U2OS = assay: MTS antiproliferative assay U2OS; format: cell-based; details: Homo sapiens, 72 h of incubation
From the text: as §2, §3, §4

BMDM macrophages = assay: MTT cytotoxicity on BMDM macrophages; format: cell-based; details: Mus musculus, 72 h
From the text: as §1, with “T. cruzi epimastigotes MHOM/VE/92/YBM venezuelan strain” for “Vero cells”, “used to test” for “derived from”, “anti T. cruzi in vitro studies. The strain was” for “kidney of an African green monkey, cells were”, “a modified LIT medium” for “Dulbecco’s Modified Eagle’s Medium (DMEM), supplemented”, “fetal bovine serum (FBS). Mouse bone marrow was used to obtain BMDM macrophages. Mouse fibroblast-conditioned medium L-929 was used for the differentiation” for “heat-inactivated FBS”, “maintenance of BMDM macrophages.” for “penicillin-streptomycin solution 1% at 37 °C, 5% CO2 atmosphere and > 95% humidity.”

SMILES | EC50 ([1]; Trypanosoma cruzi) [µM] | IC50 (HCT-116) [µM] | IC50 (K562-TAX) [µM] | IC50 (A549) [µM] | IC50 (CCRF-CEM) [µM] | IC50 (K562) [µM] | IC50 (HCT116p53−/−) [µM] | IC50 (U2OS) [µM] | melting point [°C] | EC50 (VERO cells) [µM] | IC50 (CEM-DNR) [µM] | IC50 (BJ) [µM] | EC50 ([2]; 72 h, promastigotes) [µM] | EC50 ([2]; promastigotes, 72 h) [µM] | IC50 (MRC-5) [µM] | EC50 (BMDM macrophages) [mM] | also measured
COc1cccc2c1CC/C(=C\c1cccnc1Oc1ccccc1)C2=O [Compound 9, (E)-3,4-Dihydro-5-methoxy-2-[(2-phenoxypyridin-3-yl)methylene]naphthalen-1(2H)-one] | > 60 | 24.8 ± 3.77 | 24.1 ± 6.02 | 30 ± 5.83 | 6.15 ± 0.84 | 19.6 ± 3.67 | 20.2 ± 3.1 | 19.6 ± 3.65 | – | < 100 | 26.3 ± 7.95 | > 50 | ≥ 60 | > 60 | > 50 | > 1 | –
COc1ccc2c(c1)CC/C(=C\c1cccnc1Oc1ccccc1)C2=O [Compound 10, (E)-3,4-Dihydro-6-methoxy-2-[(2-phenoxypyridin-3-yl)methylene]naphthalen-1(2H)-one] | > 60 | > 50 | 30.1 ± 7.28 | > 50 | 13.2 ± 1.82 | 44.6 ± 3.67 | > 50 | > 50 | 134 | 89 ± 15 | 33.7 ± 6.78 | > 50 | – | – | > 50 | < 1 | SIV/Lb selectivity index on L. braziliensis/VERO ([2]; SI = CC50/EC50): 4
COc1ccc2c(c1)C(=O)/C(=C/c1cccnc1Oc1ccccc1)CC2 [Compound 11, (E)-3,4-Dihydro-7-methoxy-2-[(2-phenoxypyridin-3-yl)methylene]naphthalen-1(2H)-one] | > 60 | > 50 | > 50 | > 50 | 8.79 ± 0.76 | > 50 | > 50 | > 50 | 136 | < 100 | 45.1 ± 7.9 | > 50 | ≥ 60 | > 60 | > 50 | < 1 | –
CCCCCCCCCCCCCCCCOP(=O)([O-])OCC[N+](C)(C)C [Mil, miltefosine, reference compound] | – | – | – | – | – | – | – | – | – | – | – | – | 25 ± 1.4 | – | – | 0.125 ± 0.0047 | SIB/Lb selectivity index on L. braziliensis/BMDM ([2]; SI = CC50/EC50): 5

The next lines start with results.

EC50 ([1]; Trypanosoma cruzi) [µM] | IC50 (HCT-116) [µM] | IC50 (K562-TAX) [µM] | IC50 (A549) [µM] | IC50 (CCRF-CEM) [µM] | IC50 (K562) [µM] | IC50 (HCT116p53−/−) [µM] | IC50 (U2OS) [µM] | melting point [°C] | SMILES | EC50 (VERO cells) [µM] | IC50 (CEM-DNR) [µM] | IC50 (BJ) [µM] | EC50 ([2]; 72 h, promastigotes) [µM] | EC50 ([2]; promastigotes, 72 h) [µM] | IC50 (MRC-5) [µM] | EC50 (BMDM macrophages) [mM] | also measured
30 ± 0.7 | – | – | – | – | – | – | – | – | O=C(Cn1ccnc1[N+](=O)[O-])NCc1ccccc1 [Bnz, benznidazole, reference compound] | 120 ± 2.3 | – | – | – | – | – | – | SIV/Tc selectivity index on T. cruzi/VERO ([1]; SI = CC50/EC50): 4
> 60 | > 50 | 20 ± 2.16 | > 50 | 4.15 ± 0.74 | > 50 | > 50 | > 50 | – | O=C1/C(=C/c2cccnc2Oc2ccccc2)CCc2ccccc21 [Compound 8, (E)-3,4-Dihydro-2-[(2-phenoxypyridin-3-yl)methylene]naphthalen-1(2H)-one] | > 100 | 38.2 ± 6.26 | > 50 | ≤ 60 | 57.6 ± 1.62 | > 50 | > 1 | –
< 60 | 26.2 ± 2.4 | 32.5 ± 2.93 | 37 ± 3.98 | 6.07 ± 0.63 | 23.6 ± 2.55 | 25.6 ± 3.77 | 27.9 ± 4.13 | 130 | O=C1/C(=C/c2cccnc2Oc2ccc(Cl)cc2)CCc2ccccc21 [Compound 20, (E)-2-{[2-(4-Chlorophenoxy)pyridin-3-yl]methylene}-3,4-dihydronaphthalen-1(2H)-one] | > 1000 | 28.2 ± 4.83 | > 50 | ≥ 60 | > 60 | > 50 | > 1 | EC50 [1]: 57.4 ± 3.6 µM
< 60 | 38.1 ± 5.44 | 23.6 ± 8.79 | 46.9 ± 4.02 | 10.4 ± 2.46 | 32.7 ± 3.67 | 31.1 ± 4.45 | 46.8 ± 4.26 | – | COc1cccc2c1CC/C(=C\c1cccnc1Oc1ccc(Cl)cc1)C2=O [Compound 21, (E)-2-{[2-(4-Chlorophenoxy)pyridin-3-yl]methylene}-3,4-dihydro-5-methoxynaphthalen-1(2H)-one] | 103 ± 15 | 35.8 ± 4.25 | > 50 | 9.24 ± 1 | – | > 50 | > 1 | EC50 [1]: 35.5 ± 10 µM
4.91 ± 0.98 | > 50 | 16.1 ± 4.44 | > 50 | 15.7 ± 1.54 | > 50 | > 50 | > 50 | 160 | COc1ccc2c(c1)C(=O)/C(=C/c1cccnc1Oc1ccc(Cl)cc1)CC2 [Compound 23, (E)-2-{[2-(4-Chlorophenoxy)pyridin-3-yl]methylene}-3,4-dihydro-7-methoxynaphthalen-1(2H)-one] | 100 ± 16 | 23.9 ± 4.98 | > 50 | 5.69 ± 2.65 | – | > 50 | > 1 | SIB/Lb selectivity index on L. braziliensis/BMDM ([2]; SI = CC50/EC50): 176; SIV/Lb selectivity index on L. braziliensis/VERO ([2]; SI = CC50/EC50): 18; SIV/Tc selectivity index on T. cruzi/VERO ([1]; SI = CC50/EC50): 20; selectivity index T. cruzi vs BMDM (CC50/EC50) ([1]; SI = CC50/EC50): > 204
